Data on two compounds can be found in EP0326640B1, “(1R,5S,6S)-2-substituted thio-6 (R)-1-hydroxyethyl -1-methyl-carbapenem - carboxylic acid derivatives” (LEDERLE (JAPAN) LTD., priority 1987, dated 1989).

SMILES strings stand for the structures. Converted amounts (≈) assume the structure as drawn.

The test system of test [1] is Morganella morganii IFO3848. Description: Antibacterial test, agar plate dilution method (MIC), standard strains. In kind it is cell-based. As to conditions: Morganella morganii, IFO3848, 18 h, MH agar, 37°C, read-out: MIC. As for the experimental part: (§1) The antibacterial activities were tested by an agar plate dilution method in accordance with the standard method of The Japanese Chemotherapy Society [Chemotherapy, Vol. 29, 76-79 (1981)].
(§2) A Mueller-Hinton (MH) agar liquid medium of a test microorganism was cultured overnight at 37°C and the resultant culture medium was diluted with a buffered saline gelatin (BSG) solution to contain approximately 10⁶ cells of the test microorganisms per milliliter, and then the diluted solution was inoculated with a microplanter at the rate of approximately 5 microliters on a MH agar medium containing a test compound. This medium was then incubated at 37°C for 18 hours. The minimum inhibitory concentration (MIC) is determined as a minimum concentration in which no test microorganism could grow. It is noted here that the test organisms used were all standard strains.

In test [2] the test system is Proteus mirabilis IFO3849. The description is as above. In kind it is cell-based. As to conditions: Proteus mirabilis, IFO3849, 18 h, Proteus mirabilis IFO3849; MH agar, 37°C, 18 hours; read-out: MIC. As for the experimental part:
as §1, §2

A further test relates to Proteus vulgaris HX-19. The test is described as above. In kind it is cell-based. As to conditions: HX19; Proteus vulgaris HX-19; MH agar, 37°C, 18 hours; read-out: MIC. As for the experimental part:
as §1, §2

The subject of the next test is Proteus vulgaris OX-19. Described as above. In kind it is cell-based. The following applies: OX19; Proteus vulgaris OX-19; MH agar, 37°C, 18 hours; read-out: MIC. As for the experimental part: as §1, §2
Test [3] concerns Providencia rettgeri IFO 3850. Described as above. The following applies: Providencia rettgeri, IFO3850, 18 h, MH agar, 37°C, read-out: MIC. In kind it is cell-based. As for the experimental part:
as §1, §2

The subject of test [4] is Pseudomanas aeruginosa NCTC 10940. The description is as above. In kind it is cell-based. The following applies: 18 h, MH agar, 37°C, read-out: MIC. As for the experimental part:
as §1, §2

The test system of test [5] is Pseudomonas aeruginosa IFO 3445. The description is as above. In kind it is cell-based. As to conditions: IFO3445, MH agar, 37°C, 18 hours, read-out: MIC. As for the experimental part:
as §1, §2

For test [6], the system named is Salmonella enteritidis G14. The test is described as above. In kind it is cell-based. As to conditions: Salmonella enterica, MH agar, 37°C, 18 hours, read-out: MIC. As for the experimental part:
as §1, §2

Test [7] concerns Salmonella paratyphi 1015. The description is as above. In kind it is cell-based. As to conditions: Salmonella enterica, MH agar, 37°C, 18 hours, read-out: MIC. As for the experimental part: as §1, §2
The test system of test [8] is Salmonella schottmuelleri 8006. The test is described as above. In kind it is cell-based. The following applies: MH agar, 37°C, 18 hours, read-out: MIC. As for the experimental part:
as §1, §2

For the next test, the system named is Salmonella typhi 901. Described as above. In kind it is cell-based. The following applies: Salmonella enterica, TYPHI, 18 h, MH agar, 37°C. As for the experimental part: as §1, §2
In test [9] the test system is Serratia marcescens IAM1184. The description is as above. The following applies: Serratia marcescens, IAM1184, 18 h, MH agar, 37°C, read-out: MIC. In kind it is cell-based. As for the experimental part: as §1, §2
In test [10] the test system is Citrobactor freundii GN 346. As to the kind of experiment: Antibacterial activity against clinically isolated β-lactamase (cephalosporinase) producing strains (MIC). The following applies: cephalosporinase producing strain, SDA, 18 to 20 hours. In kind it is cell-based. As for the experimental part:
(§3) The antibacterial activities against clinically isolated β-lactamase producing strains were tested by the agar plate dilution method in accordance with the standard method of The Japanese Chemotherapy Society [Chemotherapy, Vol. 29, 76-79 (1981)]. A solution of a cephalosporinase producing strain stored by Episome Research Institute, prepared by incubating the strain in a sensitivity test broth (STB; product of Nissui K. K.) for 18 hours, was diluted with a fresh STB solution so that the solution contained 10⁶ cells per milliliter. The diluted solution was then inoculated as spots in a microplanter on a sensitivity disk agar-N (SDA; product of Nissui K. K.) containing a test compound. The disk agar was then incubated for 18 to 20 hours. The minimum inhibitory concentration was determined as a minimum concentration in which the test microorganism no longer grew after a 18 to 20-hour incubation.

Test [11] concerns Citrobactor freundii GN 7391. The description is as above. In kind it is cell-based. The following applies: cephalosporinase producing strain, SDA, 18 to 20 hours. As for the experimental part: as §3
For test [12], the system named is Klebsiella oxytoca GN 10650. Described as above. In kind it is cell-based. As to conditions: Klebsiella oxytoca, GN10650, Klebsiella oxytoca GN 10650; cephalosporinase producing strain, SDA, 18 to 20 hours; read-out: MIC. As for the experimental part: as §3
The subject of the next test is Proteus vulgaris GN 4413. Described as above. In kind it is cell-based. As to conditions: Proteus vulgaris, GN4413, Proteus vulgaris GN 4413; cephalosporinase producing strain, SDA, 18 to 20 hours; read-out: MIC. As for the experimental part:
as §3

The test system of a further test is Proteus vulgaris GN 7919. Described as above. In kind it is cell-based. The following applies: Proteus vulgaris, GN7919, Proteus vulgaris GN 7919; cephalosporinase producing strain, SDA, 18 to 20 hours; read-out: MIC. As for the experimental part: as §3
Test [13] concerns Pseudomonas aeruginosa GN 10362. Described as above. In kind it is cell-based. As to conditions: GN10362, cephalosporinase producing strain, SDA, 18 to 20 hours, read-out: MIC. As for the experimental part:
as §3

Test [14] deals with Pseudomonas aeruginosa GN 10367. Described as above. In kind it is cell-based. The following applies: GN10367; Pseudomonas aeruginosa GN 10367; cephalosporinase producing strain, SDA, 18 to 20 hours; read-out: MIC. As for the experimental part:
as §3

Test [15] relates to Pseudomonas aeruginosa GN 918. The description is as above. In kind it is cell-based. The following applies: GN918; Pseudomonas aeruginosa GN 918; cephalosporinase producing strain, SDA, 18 to 20 hours; read-out: MIC. As for the experimental part: as §3
Test [16] concerns Pseudomonas cepacia GN 11164. Described as above. As to conditions: Burkholderia cepacia, GN11164, cephalosporinase producing strain, SDA, 18 to 20 hours, read-out: MIC. In kind it is cell-based. As for the experimental part:
as §3

For test [17], the system named is Serratia marcescens GN 10857. The test is described as above. In kind it is cell-based. The following applies: Serratia marcescens, GN10857, Serratia marcescens GN 10857; cephalosporinase producing strain, SDA, 18 to 20 hours; read-out: MIC. As for the experimental part:
as §3

The next test concerns Serratia marcescens L-65. The description is as above. In kind it is cell-based. As to conditions: Serratia marcescens, L65, Serratia marcescens L-65; cephalosporinase producing strain, SDA, 18 to 20 hours; read-out: MIC. As for the experimental part: as §3
The subject of the next test is Serratia marcescens L-82. Described as above. In kind it is cell-based. The following applies: L82, cephalosporinase producing strain, SDA, 18 to 20 hours, read-out: MIC. As for the experimental part: as §3
In test [18] the target is T1, Swine Kidney Dehydropeptidase-I (DHP-I) (Sus scrofa, UniProt P22412).
T1 construct: made soluble by treatment with butanol and purified by the ammonium sulfate fraction method, thereby producing DHP-I enzyme from a 75% ammonium sulfate fraction; from tissue; host or cells: swine kidney
T1 sequence (P22412 17-384): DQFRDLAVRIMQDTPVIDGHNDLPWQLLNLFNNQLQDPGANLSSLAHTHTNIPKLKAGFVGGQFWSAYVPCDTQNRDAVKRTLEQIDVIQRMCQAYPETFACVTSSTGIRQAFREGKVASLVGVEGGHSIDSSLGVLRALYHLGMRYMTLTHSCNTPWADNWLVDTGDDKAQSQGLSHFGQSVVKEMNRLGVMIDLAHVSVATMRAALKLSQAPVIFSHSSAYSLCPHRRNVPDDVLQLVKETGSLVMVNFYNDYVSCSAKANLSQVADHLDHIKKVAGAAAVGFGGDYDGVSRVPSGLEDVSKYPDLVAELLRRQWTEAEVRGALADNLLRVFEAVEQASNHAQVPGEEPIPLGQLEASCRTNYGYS
Description: Hydrolysis activity against DHP-I enzyme substrate by late assay. In kind it is in vitro ADME. The following applies: substrate concentration 100 µM, 37°C, 10 minutes. As for the experimental part:
The swine kidney (8 kg) was homogenized and the enzyme protein was allowed to precipitate. After a connective lipid was removed with acetone, the resultant material was made soluble by treatment with butanol and purified by the ammonium sulfate fraction method, thereby producing DHP-I enzyme from a 75% ammonium sulfate fraction. The DHP-I enzyme was then adjusted to give an enzyme concentration of 25 mg/10 ml (phosphate buffer, pH 7.1), and divided into 1 ml portions. The portions were frozen and stored at -40°C or less until use. Glycyl dehydrophenylalanine (Gl-dh-Ph) and imipenem were employed as control compounds, and they were adjusted in situ each to give a concentration of 117 µM with the same sodium phosphate buffer solution. […] The solution was then incubated at 37°C for 10 minutes. The initial velocity of hydrolysis of the substrate was measured from a decrease in absorbency at a particular λmax of each of the substrates. A blank test was conducted in substantially the same manner as above by adding 0.2 ml of the sodium phosphate buffer solution (pH 7.1) to 1.2 ml of the above substrate.

A word on the MIC: it is the least concentration at which growth counts as inhibited. For the compound `Cc1nnc(SCC2=C(C(=O)O)N3C(=O)[C@@H](NC(=O)Cn4cnnn4)[C@H]3SC2)s1` [CEZ, cefazolin], the MIC is 25 µg/mL (≈ 55 µM) in [1]; 6.25 µg/mL (≈ 13.8 µM) in test [2]; 6.25 µg/mL (≈ 13.8 µM) in the test on Proteus vulgaris HX-19; 6.25 µg/mL (≈ 13.8 µM) in the test on Proteus vulgaris OX-19; 12.5 µg/mL (≈ 27.5 µM) in test [3]; greater than 100 µg/mL in test [4]. The MIC in [5] was greater than 100 µg/mL; in test [6], 0.78 µg/mL (≈ 1.72 µM); in test [7], 1.56 µg/mL (≈ 3.43 µM); in [8] it was 0.78 µg/mL (≈ 1.72 µM); against Salmonella typhi 901 it was 0.78 µg/mL (≈ 1.72 µM); in test [9] it was greater than 100 µg/mL. Further, the MIC was 25 µg/mL (≈ 55 µM) in [10]; greater than 100 µg/mL in [11]; 0.2 µg/mL (≈ 0.44 µM) in test [12]; 0.2 µg/mL (≈ 0.44 µM) with Proteus vulgaris GN 4413; 3.13 µg/mL (≈ 6.89 µM) in the test on Proteus vulgaris GN 7919; 3.13 µg/mL (≈ 6.89 µM) in [13]. The MIC in test [14] came to 3.13 µg/mL (≈ 6.89 µM); in test [15] it was 6.25 µg/mL (≈ 13.8 µM); in [16], 0.78 µg/mL (≈ 1.72 µM); in [17] it was 0.78 µg/mL (≈ 1.72 µM); in the test on Serratia marcescens L-65, 0.2 µg/mL (≈ 0.44 µM); with Serratia marcescens L-82 it was 0.39 µg/mL (≈ 0.858 µM).
For the compound `NCC(=O)NC(=Cc1ccccc1)C(=O)O` [Gl-dh-Ph, Glycyl dehydrophenylalanine], the “initial velocity of hydrolysis” value in test [18] came out at 17.4 µM/min.
